ChEMBL document CHEMBL3508140 (2016)

What was measured:
[1] = Incidence of persistent proteinuria following reference intravenous doxorubicin at 1 mg.Kg-1 per week in rat; format: toxicity, organism-based, SD; set-up: dose 1 mg.Kg-1, dosed compound id 2.46809e+06, dosed compound name Doxorubicin, dose level High, gender Mixed, regimen Once per week, route intravenous, sampling time 36 Week, study doses 0/0.3/0.6/1 mg.Kg-1; details: in vivo
[2] = Mean plasma clearance of doxorubicin following intravenous doxorubicin at 60 mg.m-2 dose in cancer patients; format: ADME, organism-based; details: human, read-out: CLp (converted)
[3] = Mean AUC of doxorubicin following intravenous doxorubicin at 60 mg.m-2 dose in cancer patients; format: ADME, organism-based; details: human, plasma
in vivo [4] = details: female, BALB/c, mouse, plasma, iv, 10 mg/kg
in vivo [5] = details: female, BALB/c, mouse, heart, iv, 10 mg/kg
[6] = Decrease in leukocytes observed following reference intravenous doxorubicin at 1 mg.Kg-1 per week in rat; format: toxicity, organism-based, SD, Blood; set-up: dose 1 mg.Kg-1, dosed compound id 2.46809e+06, dosed compound name Doxorubicin, dose level High, gender Mixed, regimen Once per week, route intravenous, sampling time 36 Week, study doses 0/0.3/0.6/1 mg.Kg-1; details: in vivo
Albumin = Albumin (Homo sapiens, UniProt P02768); assay: Binding of doxorubicin to albumin; format: cell-free; details: read-out: Plasma protein binding (converted)
Chain of Albumin (P02768 whole entry): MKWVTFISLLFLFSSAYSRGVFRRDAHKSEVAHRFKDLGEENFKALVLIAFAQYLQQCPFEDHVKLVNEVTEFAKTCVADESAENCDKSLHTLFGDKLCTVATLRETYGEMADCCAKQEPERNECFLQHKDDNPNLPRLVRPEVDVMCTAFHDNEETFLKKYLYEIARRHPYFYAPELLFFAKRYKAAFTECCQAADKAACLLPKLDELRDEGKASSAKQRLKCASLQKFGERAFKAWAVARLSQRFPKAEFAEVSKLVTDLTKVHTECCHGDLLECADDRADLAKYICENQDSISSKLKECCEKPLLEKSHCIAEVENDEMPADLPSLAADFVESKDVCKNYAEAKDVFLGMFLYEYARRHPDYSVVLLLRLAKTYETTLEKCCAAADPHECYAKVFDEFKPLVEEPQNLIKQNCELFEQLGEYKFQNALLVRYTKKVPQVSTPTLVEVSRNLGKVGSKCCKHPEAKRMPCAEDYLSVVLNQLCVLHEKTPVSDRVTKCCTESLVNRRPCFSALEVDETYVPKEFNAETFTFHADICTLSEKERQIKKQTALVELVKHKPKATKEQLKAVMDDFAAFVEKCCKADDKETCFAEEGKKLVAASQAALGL

[7] = Volume of distribution of adriamycin following intravenous adriamycin at 1.27 mg.Kg-1 dose in dog; format: ADME, organism-based, Canis lupus familiaris; set-up: dose 1.27 mg.Kg-1, dosed compound id 2.46809e+06, dosed compound name Doxorubicin, route intravenous; details: Beagle, plasma
[8] = Percentage of doxorubicin excreted unchanged in urine following doxorubicin at 60 mg.m-2 dose in cancer patients; format: ADME, organism-based; set-up: dose 60 mg.m-2, dosed compound id 2.46809e+06, dosed compound name Doxorubicin; details: human, at 60 mg/m2, read-out: Compound recovery
[9] = (§1) Urinary elimination of adriamycin following intravenous bolus adriamycin at 10 mg.Kg-1 dose in rat; format: ADME, organism-based; set-up: dose 10 mg.Kg-1, dosed compound id 2.46809e+06, dosed compound name Doxorubicin, route intravenous, sampling time 0-60 h; details: SD, urine, read-out: Compound recovery
[10] = Terminal half-life of doxorubicin following intravenous doxorubicin at 1.27 mg.Kg-1 dose in dog; format: ADME, organism-based, Canis lupus familiaris, Beagle, Plasma; set-up: dose 1.27 mg.Kg-1, dosed compound id 2.46809e+06, dosed compound name Doxorubicin, route intravenous; details: in vivo
in vivo [11] = details: Beagle, dog, plasma, iv, 1.27 mg/kg
[12] = AUC values (0-48 h) of doxorubicin in plasma following single intravenous doxorubicin at 10 mg.Kg-1 dose in female mouse bearing colon tumor; format: ADME, organism-based, BALB/c; set-up: time < 48 hr, dose 10 mg.Kg-1, dosed compound id 2.46809e+06, dosed compound name Doxorubicin, gender F, regimen Single, route intravenous, sampling time 48 h; details: in vivo
Homo sapiens = species: Homo sapiens; assay: Binding of doxorubicin to plasma protein of human; format: cell-free
[13] = Renal clearance of doxorubicin following doxorubicin at 60 mg.m-2 dose in cancer patients; format: ADME, organism-based, Kidney; details: human, in vivo, iv, read-out: Renal clearance (converted)
[14] = as §1; format: ADME, organism-based; set-up: dose 10 mg.Kg-1, dosed compound id 2.46809e+06, dosed compound name Doxorubicin, route intravenous, sampling time 0-24 h; details: SD, urine, read-out: Compound recovery
[15] = Mean terminal half-life of doxorubicin following intravenous doxorubicin at 60 mg.m-2 dose in cancer patients; details: human, plasma
[16] = AUC values (0-48 h) of doxorubicin in tumor following single intravenous doxorubicin at 10 mg.Kg-1 dose in female mouse bearing colon tumor; format: ADME, organism-based, BALB/c, Neoplasm; set-up: time < 48 hr, dose 10 mg.Kg-1, dosed compound id 2.46809e+06, dosed compound name Doxorubicin, gender F, regimen Single, route intravenous, sampling time 48 h; details: in vivo
[17] = Detection of doxorubicin in plasma following single intravenous doxorubicin at 10 mg.Kg-1 dose in female mouse bearing colon tumor; format: ADME, organism-based, BALB/c; set-up: dose 10 mg.Kg-1, dosed compound id 2.46809e+06, dosed compound name Doxorubicin, gender F, regimen Single, route intravenous, sampling time 48 h; details: in vivo
[18] = AUC values (0-48 h) of doxorubicin in heart following single intravenous doxorubicin at 10 mg.Kg-1 dose in female mouse bearing colon tumor; format: ADME, organism-based, BALB/c; set-up: time < 48 hr, dose 10 mg.Kg-1, dosed compound id 2.46809e+06, dosed compound name Doxorubicin, gender F, regimen Single, route intravenous, sampling time 48 h; details: in vivo
[19] = Elimination of doxorubicin following doxorubicin at 60 mg.m-2 dose in cancer patients; format: ADME, organism-based, Plasma; details: human, in vivo, iv
[20] = Incidence of leukocyturia following reference intravenous doxorubicin at 1 mg.Kg-1 per week in rat; format: toxicity, organism-based, SD; set-up: dose 1 mg.Kg-1, dosed compound id 2.46809e+06, dosed compound name Doxorubicin, dose level High, gender Mixed, regimen Once per week, route intravenous, sampling time 36 Week, study doses 0/0.3/0.6/1 mg.Kg-1; details: in vivo
[21] = Decrease in albumin due to persistent proteinuria following reference intravenous doxorubicin at 1 mg.Kg-1 per week in rat; format: toxicity, organism-based, SD, Serum; set-up: dose 1 mg.Kg-1, dosed compound id 2.46809e+06, dosed compound name Doxorubicin, dose level High, gender Mixed, regimen Once per week, route intravenous, sampling time 36 Week, study doses 0/0.3/0.6/1 mg.Kg-1; details: in vivo
in vivo [22] = details: female, BALB/c, mouse, tumor, iv, 10 mg/kg
[23] = Increase in serum phospholipid level following reference intravenous doxorubicin at 1 mg.Kg-1 per week in rat; format: toxicity, organism-based, SD; set-up: dose 1 mg.Kg-1, dosed compound id 2.46809e+06, dosed compound name Doxorubicin, dose level High, gender Mixed, regimen Once per week, route intravenous, sampling time 8-22 Week, study doses 0/0.3/0.6/1 mg.Kg-1; details: in vivo
[24] = Plasma clearance of adriamycin following intravenous adriamycin at 1.27 mg.Kg-1 dose in dog; format: ADME, organism-based, Canis lupus familiaris; set-up: dose 1.27 mg.Kg-1, dosed compound id 2.46809e+06, dosed compound name Doxorubicin, route intravenous; details: Beagle, read-out: Clp
[25] = Increase in serum triglycerides level following reference intravenous doxorubicin at 1 mg.Kg-1 per week in rat; format: toxicity, organism-based, SD; set-up: dose 1 mg.Kg-1, dosed compound id 2.46809e+06, dosed compound name Doxorubicin, dose level High, gender Mixed, regimen Once per week, route intravenous, sampling time 8-22 Week, study doses 0/0.3/0.6/1 mg.Kg-1; details: in vivo
[26] = Mortality occurred following reference intravenous doxorubicin at 1 mg.Kg-1 per week in rat; format: toxicity, organism-based, SD; set-up: dose 1 mg.Kg-1, dosed compound id 2.46809e+06, dosed compound name Doxorubicin, dose level High, gender Mixed, regimen Once per week, route intravenous, sampling time 17 Week, study doses 0/0.3/0.6/1 mg.Kg-1; details: in vivo
[27] = Increase in serum total cholesterol level following reference intravenous doxorubicin at 1 mg.Kg-1 per week in rat; format: toxicity, organism-based, SD; set-up: dose 1 mg.Kg-1, dosed compound id 2.46809e+06, dosed compound name Doxorubicin, dose level High, gender Mixed, regimen Once per week, route intravenous, sampling time 8-22 Week, study doses 0/0.3/0.6/1 mg.Kg-1; details: in vivo
[28] = Volume of distribution at steady state following doxorubicin at 60 mg.m-2 dose in patients with cancer; format: ADME, organism-based; set-up: dose 60 mg.m-2, dosed compound id 2.46809e+06, dosed compound name Doxorubicin; details: human, plasma, read-out: Vss
[29] = Detection of doxorubicin in heart following single intravenous doxorubicin at 10 mg.Kg-1 dose in female mouse bearing colon tumor; format: ADME, organism-based, BALB/c; set-up: dose 10 mg.Kg-1, dosed compound id 2.46809e+06, dosed compound name Doxorubicin, gender F, regimen Single, route intravenous, sampling time 48 h; details: in vivo
[30] = as §1; format: ADME, organism-based; set-up: dose 10 mg.Kg-1, dosed compound id 2.46809e+06, dosed compound name Doxorubicin, route intravenous, sampling time 0-6 h; details: SD, urine, read-out: Compound recovery
[31] = Detection of doxorubicin in tumor following single intravenous doxorubicin at 10 mg.Kg-1 dose in female mouse bearing colon tumor; format: ADME, organism-based, BALB/c, Neoplasm; set-up: dose 10 mg.Kg-1, dosed compound id 2.46809e+06, dosed compound name Doxorubicin, gender F, regimen Single, route intravenous, sampling time 48 h; details: in vivo

Compound: COc1cccc2c1C(=O)c1c(O)c3c(c(O)c1C2=O)C[C@@](O)(C(=O)CO)C[C@@H]3O[C@H]1C[C@H](N)[C@H](O)[C@H](C)O1 [DOXORUBICIN]
- Incidence [1]: OUTCOME = Observed
- clearance [2]: 950 mL/min
- AUC [3]: 1970 ng·h/mL
- half-life (in vivo [4]): 49.5 h
- half-life (in vivo [5]): 13.2 h
- WBC_CHANGE [6]: 45%
- fraction unbound (Albumin): 0.38
- Vd [7]: 19.1 L/kg
- dose excreted at 7 Day [8]: 9%
- dose excreted [9]: 3.33%
- t1/2 [10]: VALUE = Shorter than doxorubicin
- half-life (in vivo [11]): 5.4 min
- AUC [12]: 204.9 nmol·min/mL
- PPB (Homo sapiens): 71%
- CL renal [13]: 76.7 mL/min
- dose excreted [14]: 2.77%
- half-life [15]: 48 h
- AUC [16]: 8700 nmol·min/g
- Compound recovery [17]: OUTCOME = Observed
- AUC [18]: 14100 nmol·min/g
- Elimination [19]: OUTCOME = Observed
- Incidence [20]: OUTCOME = Observed
- ALB_CHANGE [21]: OUTCOME = Decreased
- half-life (in vivo [22]): 32.1 h
- PHOSLPD_CHANGE [23]: OUTCOME = Increased
- clearance [24]: 607 mL/min
- TRIG_CHANGE [25]: OUTCOME = Increased
- Mortality [26]: OUTCOME = Observed, N_AFFECTED = 9
- CHOL_CHANGE [27]: OUTCOME = Increased
- Vd [28]: 33 L/kg
- Compound recovery [29]: OUTCOME = Observed
- dose excreted [30]: 2.08%
- Compound recovery [31]: OUTCOME = Observed
